In patent publication US9868746B2, “Substituted 5-aminothieno[2,3-C]pyridazine-6-carboxamide analogs as positive allosteric modulators of the muscarinic acetylcholine receptor M4” (Vanderbilt University, priority 2012, dated 2018):
Like-named read-outs stand apart in the source and are kept apart here.

Biological target: T1, mAChR M4 (Homo sapiens, UniProt P08173)
T1 construct: expressed in transfected cells; host or cells: CHO-K1 cells stably transfected with M4 cDNA and chimeric G-protein Gqi5
T1 sequence (P08173 1-479): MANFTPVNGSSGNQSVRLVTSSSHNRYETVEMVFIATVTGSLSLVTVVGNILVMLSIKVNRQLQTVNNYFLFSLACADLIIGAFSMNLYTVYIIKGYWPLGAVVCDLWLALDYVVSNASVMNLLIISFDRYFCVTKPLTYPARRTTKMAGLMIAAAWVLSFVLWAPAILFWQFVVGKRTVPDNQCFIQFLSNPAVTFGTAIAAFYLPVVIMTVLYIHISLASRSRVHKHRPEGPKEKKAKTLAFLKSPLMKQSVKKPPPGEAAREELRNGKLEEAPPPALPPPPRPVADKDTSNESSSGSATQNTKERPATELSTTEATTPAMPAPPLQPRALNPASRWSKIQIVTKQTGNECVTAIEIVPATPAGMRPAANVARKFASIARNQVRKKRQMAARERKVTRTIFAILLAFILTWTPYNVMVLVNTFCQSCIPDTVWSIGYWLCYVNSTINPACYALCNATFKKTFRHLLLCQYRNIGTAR
Test: mAChR M4 cell-based functional assay (calcium mobilization, potentiation of EC20 acetylcholine response)
Settings: for Emax at 30 µM: % ACh maximum at 30 μM

[1] = mAChR M4 cell-based functional assay, >10,000 estimated for low potency compounds without plateau, read-out: EC50

Structure (SMILES) | Emax at 30 µM | EC50 [1] | EC50 (EC50 (nM))
Cc1nnc2sc(C(=O)N3C[C@@H]4C[C@@H]3CN4C(=O)Oc3ccccc3)c(N)c2c1C [Example B270] | 62% | > 10000 nM | –
COc1ccccc1N1CCC(NC(=O)c2sc3nnc(C)c(C)c3c2N)C1 (stereo not drawn) [Example B271] | 71% | 3000 nM | –
COC1CCN(C(=O)c2sc3nnc(C)c(C)c3c2N)C1 (stereo not drawn) [Example B272] | 55% | > 10000 nM | –
Cc1nnc2sc(C(=O)NC3CCN(c4ccc(OC(F)(F)F)cc4)C3)c(N)c2c1C (stereo not drawn) [Example B273] | 71% | 230 nM | –
Cc1nnc2sc(C(=O)NC3CCN(c4ccc(Cl)cc4)C3)c(N)c2c1C (stereo not drawn) [Example B274] | 69% | 41 nM | –
Cc1nnc2sc(C(=O)N3CC(Cc4ccccc4)C3)c(N)c2c1C [Example B275] | 65% | 200 nM | –
Cc1nnc2sc(C(=O)NCc3ccc4c(c3)CC(=O)N4)c(N)c2c1C [Example B276] | 67% | 360 nM | –
Cc1nnc2sc(C(=O)N3CC4CN(S(C)(=O)=O)CC4C3)c(N)c2c1C (stereo not drawn) [Example B277] | 56% | > 10000 nM | –
CC(=O)N1CC2CN(C(=O)c3sc4nnc(C)c(C)c4c3N)CC2C1 (stereo not drawn) [Example B278] | 54% | > 10000 nM | –
Cc1nnc2sc(C(=O)N3CCC(O)(c4ccccc4)C3)c(N)c2c1C (stereo not drawn) [Example B279] | 48% | 4300 nM | –
Cc1nnc2sc(C(=O)N3Cc4ccccc4C3)c(N)c2c1C [Example B280] | 46% | 1700 nM | –
Cc1nnc2sc(C(=O)NC3C4CC5CC(C4)CC3C5)c(N)c2c1C (stereo not drawn) [Example B281] | 62% | 2000 nM | –
Cc1nnc2sc(C(=O)NC3CCN(c4ccccc4OC(F)(F)F)C3)c(N)c2c1C (stereo not drawn) [Example B282] | 80% | 220 nM | –
Cc1nnc2sc(C(=O)NC3CCN(c4ccc(C(F)(F)F)cc4)C3)c(N)c2c1C (stereo not drawn) [Example B283] | 76% | 180 nM | –
Cc1nnc2sc(C(=O)NC3CCN(c4ccccc4C(F)(F)F)C3)c(N)c2c1C (stereo not drawn) [Example B284] | 71% | 150 nM | –
CCOC(=O)N1CC2CN(C(=O)c3sc4nnc(C)c(C)c4c3N)CC2C1 (stereo not drawn) [Example B285] | 73% | 2500 nM | –
Cc1nnc2sc(C(=O)N3CC4CN(C5CCCC5)CC4C3)c(N)c2c1C (stereo not drawn) [Example B286] | 19% | 4800 nM | –
Cc1nnc2sc(C(=O)N3CC4CN(c5ccccn5)CC4C3)c(N)c2c1C (stereo not drawn) [Example B287] | 58% | 250 nM | –
COc1ccc(CNC(=O)c2sc3nnc(C)c(C)c3c2N)cn1 [Example B288] | 71% | 150 nM | –
COc1cc(CNC(=O)c2sc3nnc(C)c(C)c3c2N)ccn1 [Example B289] | 69% | 230 nM | –
COc1ccc(C2(OC)CN(C(=O)c3sc4nnc(C)c(C)c4c3N)C2)cc1 [Example B290] | 45% | 440 nM | –
Cc1nnc2sc(C(=O)N3CC(F)(CCC4OCCCO4)C3)c(N)c2c1C [Example B291] | 46% | > 10000 nM | –
COC1(C)CN(C(=O)c2sc3nnc(C)c(C)c3c2N)C1 [Example B292] | 62% | > 10000 nM | –
Cc1nnc2sc(C(=O)N3CC(F)(c4cccc(F)c4)C3)c(N)c2c1C [Example B293] | 46% | 150 nM | –
COc1ccccc1C1(OC)CN(C(=O)c2sc3nnc(C)c(C)c3c2N)C1 [Example B294] | 43% | 1100 nM | –
Cc1nnc2sc(C(=O)N3CC(F)(c4ccc(Cl)cc4)C3)c(N)c2c1C [Example B295] | 54% | > 10000 nM | –
Cc1nnc2sc(C(=O)N3CC(F)(C4CCCCC4)C3)c(N)c2c1C [Example B296] | 67% | 280 nM | –

Structure (SMILES) | Emax at 30 µM | EC50 [1] | EC50 (EC50 (nM))
Cc1nnc2sc(C(=O)NCc3ccc(S(F)(F)(F)(F)F)cc3)c(N)c2c1C [Example B297] | 76% | – | 30 nM
COC1(CCC2OCCCO2)CN(C(=O)c2sc3nnc(C)c(C)c3c2N)C1 [Example B298] | 43% | 4300 nM | –
COC1(c2cccc(F)c2)CN(C(=O)c2sc3nnc(C)c(C)c3c2N)C1 [Example B299] | 35% | 350 nM | –
COc1cccc(C2(F)CN(C(=O)c3sc4nnc(C)c(C)c4c3N)C2)c1 [Example B300] | 52% | 330 nM | –
COc1ccc(C2(NC(=O)c3sc4nnc(C)c(C)c4c3N)CC2)cc1 [Example B301] | 48% | 6400 nM | –
Cc1nnc2sc(C(=O)N3CC(C)(F)C3)c(N)c2c1C [Example B302] | 73% | 860 nM | –
Cc1nnc2sc(C(=O)N3CC(F)(c4ccccn4)C3)c(N)c2c1C [Example B303] | 57% | 500 nM | –
COC1(C2CCCCC2)CN(C(=O)c2sc3nnc(C)c(C)c3c2N)C1 [Example B304] | 43% | 1100 nM | –
CCCCC1(OC)CN(C(=O)c2sc3nnc(C)c(C)c3c2N)C1 [Example B305] | 68% | 870 nM | –
Cc1nnc2sc(C(=O)N3CC(N)(c4ccccc4)C3)c(N)c2c1C [Example B306] | 51% | 1100 nM | –
CCCCC1(F)CN(C(=O)c2sc3nnc(C)c(C)c3c2N)C1 [Example B307] | 55% | 180 nM | –
Cc1nnc2sc(C(=O)N3CC(F)(c4cccnc4)C3)c(N)c2c1C [Example B308] | 42% | 850 nM | –
Cc1nnc2sc(C(=O)N3CC(NC(=O)Oc4ccccc4)(c4ccccc4)C3)c(N)c2c1C [Example B309] | 48% | > 10000 nM | –
COc1cccc(C2(OC)CN(C(=O)c3sc4nnc(C)c(C)c4c3N)C2)c1 [Example B310] | 39% | 1900 nM | –
Cc1nnc2sc(C(=O)N3CC(N=[N+]=[N-])(c4ccccc4)C3)c(N)c2c1C [Example B311] | 43% | 180 nM | –
Cc1nnc2sc(C(=O)N3CC(F)(c4ccncc4)C3)c(N)c2c1C [Example B312] | 55% | 2800 nM | –
COc1c(F)cc(CNC(=O)c2sc3nnc(C)c(C)c3c2N)cc1F [Example B313] | 84% | 18 nM | –
COC1(c2ccc(Cl)cc2)CN(C(=O)c2sc3nnc(C)c(C)c3c2N)C1 [Example B314] | 49% | 2800 nM | –
COc1ccc2c(c1)CCN(C(=O)c1sc3nnc(C)c(C)c3c1N)C2 [Example B315] | 57% | 840 nM | –
Cc1nnc2sc(C(=O)NCc3cccnc3)c(N)c2c1C [Example B316] | 73% | 310 nM | –
Cc1nnc2sc(C(=O)N3CC(F)(c4cccc(-c5cncnc5)c4)C3)c(N)c2c1C [Example B317] | 47% | 290 nM | –
Cc1nnc2sc(C(=O)N3CC(F)(c4ccc(-c5ccncc5)cc4)C3)c(N)c2c1C [Example B318] | 35% | 290 nM | –
Cc1nnc2sc(C(=O)N3CC(F)(c4ccc(-c5cnn(C)c5)cc4)C3)c(N)c2c1C [Example B319] | 51% | 390 nM | –
Cc1nnc2sc(C(=O)N3CC(F)(c4ccc(-c5cccnc5)cc4)C3)c(N)c2c1C [Example B320] | 42% | 130 nM | –
Cc1nnc2sc(C(=O)N3CC(F)(c4cccc(-c5cccnc5)c4)C3)c(N)c2c1C [Example B321] | 48% | 290 nM | –
Cc1nnc2sc(C(=O)N3CC(c4ccccc4)(N(C)C)C3)c(N)c2c1C [Example B322] | 42% | 2200 nM | –
Cc1nnc2sc(C(=O)N3CC(F)(c4cccc(-c5ccncc5)c4)C3)c(N)c2c1C [Example B323] | 44% | 87 nM | –
